Legend:
[1] = system: ovariectomized animals (OVX); test: Bone tissue analysis by 3D CTR of the femoral articular head in OVX rats (Example 4); type: in vivo, Wistar rats
Protocol: Animal experiments were conducted using ovariectomized animals (OVX). The animals used were 48 female Wistar rats with body weight of approximately 350 g. They were used in the experiments after being preliminarily reared on standard feed (CE-2 manufactured by CLEA Japan, Inc.) for one week after undergoing ovariectomy. All experiments were approved by the Animal Experiment Ethics Committee of CLEA Japan, Inc. and were conducted according to the policies thereof. The standard feed CE-2 manufactured by CLEA Japan, Inc. contains 1.06 g of calcium per 100 g of the feed as calcium carbonate and calcium iodate (according to 2009 periodic analysis average values listed on the website of CLEA Japan, Inc.). After preliminary feeding, 12 OVX rats were divided into groups of three rats each. Group A was reared on feed obtained by adding 3% collagen and 5% DFA III to the standard feed; Group B was reared on feed obtained by only adding the same amount of DFA III; Group C was reared on feed obtained by only adding the same amount of collagen; Group D was reared on the standard feed only. One week, two weeks, three weeks, and one month after the start of feeding, phenobarbital in a dose of 0.5 mg per 10 g of body weight was administered intraperitoneally to anesthetize the rats. Perfusion fixation was performed by injecting 4% paraformaldehyde solution diluted with cacodylate buffer of pH 7.4 and perfusing for 5 minutes from the left ventricle. After fixation, the articular head of the femur and the tibia of the lower limbs were extracted. 3D CTR images of the articular head were taken using a 3D Micro X-ray CTR-mCT2 for experimental animals (manufactured by Rigaku Corp.). From the 3D CTR images that were taken, five images of cross-sections in the same direction were selected, and the bone area and bone marrow area in each individual was measured and the average taken (Table 5 and FIG. 5).

[2] = system: OVX rats with osseous defect in the epiphyseal area of the tibia; test: Recovery promoting effect in osseous defect of the tibia in OVX rats, 3D CTR (Example 5); type: in vivo, Wistar rats; details: one month
Protocol: Animal experiments were conducted using ovariectomized animals (OVX). The animals used were 48 female Wistar rats with body weight of approximately 350 g. They were used in the experiments after being preliminarily reared on standard feed (CE-2 manufactured by CLEA Japan, Inc.) for one week after undergoing ovariectomy. All experiments were approved by the Animal Experiment Ethics Committee of CLEA Japan, Inc. and were conducted according to the policies thereof. The standard feed CE-2 manufactured by CLEA Japan, Inc. contains 1.06 g of calcium per 100 g of the feed as calcium carbonate and calcium iodate (according to 2009 periodic analysis average values listed on the website of CLEA Japan, Inc.).
Using 12 OVX rats after preliminary feeding, phenobarbital in a dose of 0.5 mg per 10 g of body weight was administered intraperitoneally to anesthetize the rats. An incision was made in the skin on the upper portion of the knee joint, and then the knee joint was exposed, and a hole approximately 0.5 mm in diameter was made using a dental round bur in the epiphyseal area of the tibia, and then the incision was sutured.
After the surgery, the rats were divided into four groups of three rats each. Group A was reared on feed obtained by adding 3% collagen and 5% DFA III to the standard feed; Group B was reared on feed obtained by only adding the same amount of DFA III; Group C was reared on feed obtained by only adding the same amount of collagen; Group D was reared on the standard feed only.
After one month of feeding, the same anesthesia was performed, and perfusion fixation was performed with 4% paraformaldehyde from the left ventricle in the same manner as the femur experiment. After fixation, the region where the surgery was performed was extracted, and after washing with 0.8 M cacodylate buffer adjusted to pH 7.4, 3D CTR images were taken using the CTR apparatus mentioned above (FIG. 6).
The bone area and the bone marrow area were measured using five images of the osseous defect in the same manner as in Example 4 (Table 6).

[3] = system: osteoblastic cell line MC3T3-E1; test: Effect of DFA III on the number of osteoblastic cells (MTS, absorbance 490 nm) (Example 3); type: cell-based, mouse; details: for light absorbance at 490 nm (relative number of the cells): MC3T3-E1
Protocol: The effect of DFA III on osteoblasts was examined using the osteoblastic cell line MC3T3-E1 isolated from […].
First, 3×10^5 cells of MC3T3-E1 were inoculated in 96 wells containing 90 μL of α-MEM medium containing penicillin (manufactured by Sigma) and streptomycin (manufactured by Sigma) (200 μg/mL). DFA III was added to the culture solution so as to result in concentrations of 10 mM, 50 mM, and 100 mM, and the cells were cultured at 37° C. at a CO2 concentration of 5%. Culturing was performed for five wells each for each of the concentrations, and the number of the cells was counted on day 1, day 4, day 7, and day 14 after culturing.
When counting the number of the cells, the cells were treated with 10 mM trypsin for 30 minutes under the same conditions as the cell culture, and then separated from the well. The cells were then added to 100 μL of MTS solution (manufactured by Promega Corp.), and incubated for 30 minutes under the same conditions as the cell culture, and a light absorbance at the wavelength of 490 nm was measured using a plate reader (“iMark Plate Reader” manufactured by Bio-Rad Laboratories, Inc.). The measured light absorbance represents the relative number of the cells.
The average value of the three from the five wells cultured under the same conditions was taken as the measured value. As a control, the wells were used, where the medium of the wells to which DFA III was not added.

[4] = 3% collagen and/or 5% DFA III in standard feed, one month, articular head of femur
[5] = 3% collagen and/or 5% DFA III in standard feed

OC[C@H]1O[C@@]2(CO[C@]3(CO)O[C@H](CO)[C@@H](O)[C@@H]3O2)[C@@H](O)[C@@H]1O [DFA III, Difructose anhydride III]
Proportion of bone in articular head (%) ([1]; 3% collagen and/or 5% DFA III in standard feed, one month): 56.1%
Bone area (average) [1, 4]: 320.0 μm^2
Bone marrow area (average) [1, 4]: 250.9 μm^2
Total area [1, 4]: 570.9 μm^2
CTR images: compact bone and cancellous bone, comparison of the groups ([1]; one month, FIG. 4): No marked difference
increase of the proportion of bone in the articular head versus control Group D ([1]; one month, compared with standard feed only): 10.2%
more bone tissue than the group fed standard feed alone ([1]; summary of Example 4): approximately 10%
Bone area [2, 5]: 90.7 μm^2
Bone marrow area [2, 5]: 704.8 μm^2
Total area [2, 5]: 795.5 μm^2
Proportion of bone in all bone (%) [2]: 11.4%
proportion of new bone formation greater than control Group D [2]: 4.6%
light absorbance at 490 nm (relative number of the cells) ([3]; 10 mM DFA III, 1 Day after culture): 0.309
light absorbance at 490 nm (relative number of the cells) ([3]; 10 mM DFA III, 4 Day after culture): 0.323
light absorbance at 490 nm (relative number of the cells) ([3]; 10 mM DFA III, 7 Day after culture): 0.388
light absorbance at 490 nm (relative number of the cells) ([3]; 10 mM DFA III, 14 Day after culture): 0.736
light absorbance at 490 nm (relative number of the cells) ([3]; 50 mM DFA III, 1 Day after culture): 0.305
light absorbance at 490 nm (relative number of the cells) ([3]; 50 mM DFA III, 4 Day after culture): 0.380
light absorbance at 490 nm (relative number of the cells) ([3]; 50 mM DFA III, 7 Day after culture): 0.430
light absorbance at 490 nm (relative number of the cells) ([3]; 50 mM DFA III, 14 Day after culture): 0.849
light absorbance at 490 nm (relative number of the cells) ([3]; 100 mM DFA III, 1 Day after culture): 0.321
light absorbance at 490 nm (relative number of the cells) ([3]; 100 mM DFA III, 4 Day after culture): 0.390
light absorbance at 490 nm (relative number of the cells) ([3]; 100 mM DFA III, 7 Day after culture): 0.438
light absorbance at 490 nm (relative number of the cells) ([3]; 100 mM DFA III, 14 Day after culture): 0.988
effect on cell division of osteoblasts ([3]; MC3T3-E1, conclusion from Table 4): stimulates cell division of osteoblasts
cell number values versus control group ([3]; day 1, day 4 and day 7 after culturing): control group exhibited higher values
cell number values versus control group ([3]; day 14 after culturing, 10, 50 and 100 mM): higher values than the control group

Reference: patent publication US20160310578A1, “METHOD OF ACCELERATING OSTEOGENESIS” (Fuji Nihon Seito Corporation, priority 2015, published 2016)
